This passage reports inhibition results from ChEMBL document CHEMBL6078651, “Tyrosinase Inhibitory Properties of Compounds Isolated from Artocarpus integer Roots” (J Nat Prod, 2024).

Structures are written as SMILES. Activity calls are given as the source filed them. No cut-off for these calls is given here.

This assay has as its target Mushroom tyrosinase (Agaricus bisporus) (UniProt O42713+Q00024+C7FF04+C7FF05). Put plainly: Inhibition of mushroom tyrosinase using L-DOPA as substrate at 50 uM preincubated for 10 mins followed by substrate addition measured after 20 mins by spectrophotometry. The following applies: time 30.0 min. Format: protein assay.
For the compound `C=C(C)c1cc2c(=O)c3c(O)c4c(c(CC=C(C)C)c3oc2c2c1[C@](O)(C(=O)OC)CC2=O)OC(C)(C)C=C4`, the inhibition result was “inactive”. In the case of `COc1cc(O)c2c(=O)c3c(oc2c1)-c1cc(O)c(OC)cc1OC3C=C(C)C` (stereo not given), the inhibition entry is “inactive”.

With `CC(C)=CCc1c2c(c(O)c3c(=O)c4c(oc13)-c1c(O)cc(O)c3c1C(C4)C(C)(C)O3)C=CC(C)(C)O2` (stereo not given), the inhibition entry was “inactive”. Under `COc1cc2c(c3c1[C@H](C(C)(C)O)CC[C@@H]3c1ccc(O)cc1O)C=CC(C)(C)O2` stands “inactive”. Under `CC(C)=CCC/C(C)=C/Cc1c2c(c(O)c3c(=O)c4c(oc13)-c1c(O)cc(O)c3c1C(C4)C(C)(C)O3)C=CC(C)(C)O2` (stereo not given) stands “inactive”; under `COc1cc2c(c3oc(-c4cc(O)cc(O)c4)cc13)C=CC(C)(C)O2`, “inactive”.

`CC(C)c1cc2c(O)cc(-c3cc4ccc(O)cc4o3)cc2o1`: the inhibition entry is “inactive”. `CC(C)=CCC/C(C)=C/Cc1c2c(c(O)c3c(=O)c(CC=C(C)C)c(-c4cc(C)c(O)cc4O)oc13)C=CC(C)(C)O2`: the inhibition entry is “inactive”. In the case of `C=CC(C)(C)/C=C/c1ccc(O)cc1`, the inhibition result is “inactive”. Consider `C=C(C)C1Cc2c(oc3cc(OC)cc(O)c3c2=O)-c2c(O)cc(OC)c(O)c21` (stereo not given), for which the inhibition entry was “inactive”. As for `C=C(C)c1cc2c(=O)c3c(O)c4c(c(C/C=C(\C)CCC=C(C)C)c3oc2c2c1[C@](O)(C(=O)OC)CC2=O)OC(C)(C)C=C4`, the inhibition result is “inactive”.

For `C=C(C)c1cc2c(=O)c3c(O)c(CC=C(C)C)c(O)c(C/C=C(\C)CCC=C(C)C)c3oc2c2c1[C@](O)(C(=O)OC)CC2=O`, the inhibition result was “inactive”. In the case of `COc1cc2c(cc1O)-c1oc3cc(O)cc(O)c3c(=O)c1C(C=C(C)C)O2` (stereo not given), the inhibition entry was “inactive”. `CC(C)=CC1Oc2cc(O)ccc2-c2oc3cc(O)cc(O)c3c(=O)c21` (stereo not given): the inhibition result was “inactive”.

On to `COc1cc(O)c2c(c1)O[C@H](c1cc(OC)c(OC)cc1OC)CC2=O`, for which the inhibition entry was “inactive”.
